Consider 7 molecules from patent US20230117034A1, “PYRAZOLOTRIAZINES” (Bayer Aktiengesellschaft, priority 2019, published 2023).

One assay has as its target T1, CDK9/CycT1 (Homo sapiens, UniProt P50750).
T1 construct: Recombinant full-length His-tagged human CDK9 and CycT1; purchased Life Technologies PV4131; host or cells: insect cells
The assay is described as follows: CDK9/CycT1 high ATP kinase assay (TR-FRET, 2 mM ATP). The conditions noted are these: 2 mM ATP (high ATP); median; read-out: CDK9/CyclinT1, 2 mM ATP (high ATP), IC50 (median). The assay is classed as biochemical. The gist of the method: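 Full-length His-tagged human CDK9/CycT1 (insect cell, ~0.5 μg/mL) preincubated 15 min at 22 °C with compound in Tris pH 8.0, MgCl2, DTT buffer before reaction with biotinylated peptide substrate at high ATP (2 mM).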
In general terms: Time-resolved FRET reads energy transfer from a long-lived donor to a nearby acceptor.

The target in assay [1] is T2, CDK12 protein level in CAL-120 breast cancer cells (Homo sapiens, UniProt Q9NYV4).
T2 construct: endogenous in cells; host or cells: CAL-120 human breast cancer cells (DSMZ ACC 459)
The assay is described as follows: CDK12 protein level: Protein Simple (CDK12, CAL-120). The conditions noted are these: CAL-120 cells, 18 h with compound, CDK12/HSP90 peak area ratio vs vehicle, median, read-out: CDK12 protein level in CAL-120 breast ca cells, DC50-[mol/l] (median). The assay is classed as cell-based. How it is done: CAL-120 human breast cancer cells (DSMZ ACC 459) were seeded at 300,000 cells/well in 6-well plates containing 2 mL of growth medium (DMEM, 10% FCS, glutamine) and incubated for 24 h at 37° C. in an humidified incubator. Test compounds were added at various concentrations, control wells received solvent (DMSO), and the plates were incubated for another 18 h at 37° C. Cells were washed 2 times with PBS and lysed in 75 microL lysis buffer (MSD-Puffer (MSD, #R60TX-2), +1% 505S+PhosSTOP (Roche #04906837001)+complete mini (Roche #04693159001)) by scraping. The lysates were pushed 2 times through Qiashedders followed by centrifugation at 14,000 rpm for 30-50 sec. The supernatant was stored at −20° C. Proteins were separated by applying 0.4 microgramms of protein lysate to Protein Simple 66-440 kDa (Protein Simple #SM-S002) size assay columns on a PEGGY SUE or SALLY SUE equipment according to the supplier's manual. CDK12 and HSP90 (loading control) were detected using anti-human CDK12 antibody (Cell Signaling Technologies (CST) #11793) at 1:25 dilution and anti-human HSP90 antibody (CST #4877) at 1:5,000 dilution. CDK12 and HSP90 peak areas were determined using Protein Simple Compass software. Ratio of CDK12/HSP90 peak areas were calculated for each sample, and […] values (degrading concentration to achieve 50% reduction relative to vehicle treated control) were determined by means of a 4 parameter fit.

Assay [2] deals with T3, CDK12 (nuclear staining in CAL-120 cells) (Homo sapiens, UniProt Q9NYV4).
T3 construct: endogenous in cells; host or cells: CAL-120 human breast cancer cells (DSMZ ACC 459)
The assay is described as follows: CDK12 nuclear protein level: immunofluorescence/high content analysis (CAL-120). The format is cell-based. The conditions noted are these: for DC50: CAL-120 cells, 24 h, immunofluorescence, 50% reduction of nuclear CDK12 staining intensity, median, read-out: CDK12 degradation IF, DC50- [mol/l] (median); for (IC50 CDK12 high ATP) to (Degradation DC50 CDK12) ratio: ratio of IC50 CDK12 high ATP kinase assay to DC50 CDK12 degradation (IF, CAL-120). Put shortly:
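CAL-120 cells were treated with compound for 24 h at 37 °C, fixed with PFA and immunostained for CDK12. Nuclear CDK12 intensity was quantified by automated image analysis and normalized to DMSO and control. DC50 is the concentration giving 50% reduction of nuclear staining.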

Assay [3] deals with BRCA1 mRNA expression in CAL-120 cells. The assay is described as follows: qRT-PCR assay: BRCA1 mRNA expression in CAL-120. The assay is classed as cell-based. The conditions noted are these: Homo sapiens; Inhibition of BRCA1 mRNA expression in CAL-120 cells; median; read-out: RTqPCR-CAL-120, IC50, BRCA1 (median). How it is done: 3. qRT-PCR Assay: BRCA, ATR, MCL1 in MDA-MB-231, CAL-120
Tissue cultured human MDA-MB-231 human breast cancer cells were plated in 500 microL per well at 200,000 cells/well in a 24 well microtiter plate. After 24 h, the cells were exposed continuously for 24 h to test substances (substances were added with Tecan HP 0300 Dispenser). RNA was prepared using Qiagen RNeasy MiniKit (#74106), RNA was quantified using a NanoDrop Equipment, and 600 nano gamms of RNA was coverted to cDNA using a SuperScript VILO kit (Thermofisher #11755050) followed by qPCR amplification. BRCA1 and ATR gene expression was measured by RT-qPCR and normalised to GAPDH housekeeping gene expression. qPCR primer sets have been purchased from Thermo Fisher Scientific/Applied Biosystems: BRCA1, #Hs 01556193; ATR, #Hs 00992123; GAPDH, #Hs 03929097.

Each structure is given as a SMILES string. Where only a bound is given, the exact number is not on record here.

T2 sequence (Q9NYV4 whole entry): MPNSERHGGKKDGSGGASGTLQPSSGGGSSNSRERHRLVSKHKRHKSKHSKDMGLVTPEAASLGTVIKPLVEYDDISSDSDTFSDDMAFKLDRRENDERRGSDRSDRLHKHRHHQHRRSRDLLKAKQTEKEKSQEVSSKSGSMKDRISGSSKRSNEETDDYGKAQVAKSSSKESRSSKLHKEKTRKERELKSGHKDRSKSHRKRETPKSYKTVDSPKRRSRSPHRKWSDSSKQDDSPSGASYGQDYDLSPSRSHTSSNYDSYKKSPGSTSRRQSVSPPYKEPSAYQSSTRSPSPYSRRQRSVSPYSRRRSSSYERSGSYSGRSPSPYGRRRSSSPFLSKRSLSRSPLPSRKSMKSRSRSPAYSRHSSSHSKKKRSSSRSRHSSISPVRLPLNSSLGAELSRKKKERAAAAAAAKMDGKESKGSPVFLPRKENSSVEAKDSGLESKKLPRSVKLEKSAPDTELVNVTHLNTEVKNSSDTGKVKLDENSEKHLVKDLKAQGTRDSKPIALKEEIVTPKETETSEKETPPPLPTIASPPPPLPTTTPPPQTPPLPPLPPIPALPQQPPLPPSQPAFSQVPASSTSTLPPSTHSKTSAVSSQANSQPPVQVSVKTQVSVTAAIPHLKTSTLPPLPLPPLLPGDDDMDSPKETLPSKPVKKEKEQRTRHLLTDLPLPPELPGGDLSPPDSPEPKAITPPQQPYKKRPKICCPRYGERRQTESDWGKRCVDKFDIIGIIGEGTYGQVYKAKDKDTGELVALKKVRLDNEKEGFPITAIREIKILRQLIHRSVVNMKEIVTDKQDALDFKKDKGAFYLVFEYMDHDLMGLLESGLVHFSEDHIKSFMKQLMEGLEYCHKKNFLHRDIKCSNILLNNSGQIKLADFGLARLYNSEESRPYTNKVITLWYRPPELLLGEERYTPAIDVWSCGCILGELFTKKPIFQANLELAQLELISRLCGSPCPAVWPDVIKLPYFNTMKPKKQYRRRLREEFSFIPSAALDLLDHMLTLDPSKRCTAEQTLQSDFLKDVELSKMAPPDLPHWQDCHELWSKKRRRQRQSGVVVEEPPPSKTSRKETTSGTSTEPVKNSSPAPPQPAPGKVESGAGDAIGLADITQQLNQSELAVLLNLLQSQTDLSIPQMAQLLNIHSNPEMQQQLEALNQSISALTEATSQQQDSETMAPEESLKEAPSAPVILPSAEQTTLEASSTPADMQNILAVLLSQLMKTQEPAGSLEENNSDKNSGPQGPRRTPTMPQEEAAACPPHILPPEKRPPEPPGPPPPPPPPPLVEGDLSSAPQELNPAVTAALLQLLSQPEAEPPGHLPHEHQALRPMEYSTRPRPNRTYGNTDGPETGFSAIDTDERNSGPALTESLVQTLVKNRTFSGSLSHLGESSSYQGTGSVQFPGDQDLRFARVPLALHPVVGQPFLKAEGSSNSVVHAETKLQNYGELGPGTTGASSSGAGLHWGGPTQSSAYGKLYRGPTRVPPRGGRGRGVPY
T2 sequence (O75909 whole entry partner): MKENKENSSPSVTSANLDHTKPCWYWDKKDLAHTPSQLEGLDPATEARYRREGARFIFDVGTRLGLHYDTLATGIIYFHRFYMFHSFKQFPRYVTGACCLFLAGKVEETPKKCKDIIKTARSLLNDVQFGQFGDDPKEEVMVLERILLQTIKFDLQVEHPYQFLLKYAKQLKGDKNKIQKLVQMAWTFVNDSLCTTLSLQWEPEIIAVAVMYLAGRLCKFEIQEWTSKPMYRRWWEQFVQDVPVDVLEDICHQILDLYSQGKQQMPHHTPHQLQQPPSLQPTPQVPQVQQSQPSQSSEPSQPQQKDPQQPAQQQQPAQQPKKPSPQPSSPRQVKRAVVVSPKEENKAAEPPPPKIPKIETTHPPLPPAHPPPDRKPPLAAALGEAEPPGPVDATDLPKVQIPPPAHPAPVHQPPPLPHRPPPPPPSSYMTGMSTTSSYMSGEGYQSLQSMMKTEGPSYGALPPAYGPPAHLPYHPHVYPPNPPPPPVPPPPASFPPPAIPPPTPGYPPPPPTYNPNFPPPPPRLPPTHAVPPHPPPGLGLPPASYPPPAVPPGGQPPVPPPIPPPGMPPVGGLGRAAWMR
T3 sequence (Q9NYV4 whole entry): as the sequence (Q9NYV4 whole entry) above
T3 sequence (O75909 whole entry partner): as the sequence (O75909 whole entry partner) above
T1 sequence (P50750 whole entry): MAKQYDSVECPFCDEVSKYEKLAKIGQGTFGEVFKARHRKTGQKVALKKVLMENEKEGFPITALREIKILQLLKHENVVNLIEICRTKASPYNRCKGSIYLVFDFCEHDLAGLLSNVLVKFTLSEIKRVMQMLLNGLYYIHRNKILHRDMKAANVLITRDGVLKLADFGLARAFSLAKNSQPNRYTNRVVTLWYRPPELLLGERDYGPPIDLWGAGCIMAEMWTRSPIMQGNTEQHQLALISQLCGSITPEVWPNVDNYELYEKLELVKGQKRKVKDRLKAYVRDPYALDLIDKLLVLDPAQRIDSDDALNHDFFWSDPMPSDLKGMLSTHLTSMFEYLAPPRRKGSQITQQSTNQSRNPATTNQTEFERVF
T1 sequence (O60563 whole entry partner): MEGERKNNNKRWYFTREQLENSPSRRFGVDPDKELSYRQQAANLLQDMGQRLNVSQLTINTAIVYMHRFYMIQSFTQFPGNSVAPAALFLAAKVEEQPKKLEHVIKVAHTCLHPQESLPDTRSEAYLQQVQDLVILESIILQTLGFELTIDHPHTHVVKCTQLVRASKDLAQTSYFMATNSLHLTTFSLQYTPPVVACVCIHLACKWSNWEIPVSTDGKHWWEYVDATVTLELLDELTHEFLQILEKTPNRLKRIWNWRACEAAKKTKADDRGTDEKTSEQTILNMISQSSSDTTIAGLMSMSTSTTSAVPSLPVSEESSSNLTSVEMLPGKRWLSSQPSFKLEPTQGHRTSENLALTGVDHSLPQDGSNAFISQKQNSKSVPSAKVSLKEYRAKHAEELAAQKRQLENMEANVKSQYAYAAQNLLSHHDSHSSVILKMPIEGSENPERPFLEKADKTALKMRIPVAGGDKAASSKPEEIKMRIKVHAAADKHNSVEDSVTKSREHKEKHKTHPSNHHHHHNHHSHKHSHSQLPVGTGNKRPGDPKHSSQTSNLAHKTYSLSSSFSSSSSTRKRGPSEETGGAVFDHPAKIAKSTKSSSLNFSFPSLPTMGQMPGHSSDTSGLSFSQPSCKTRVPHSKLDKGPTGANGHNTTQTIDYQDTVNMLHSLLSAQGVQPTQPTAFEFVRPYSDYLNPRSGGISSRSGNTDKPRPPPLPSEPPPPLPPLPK

On to `Fc1ccc2[nH]c(CNc3nc(N4CCNCC4)nc4c(C5CC5)cnn34)nc2c1` [Example 190, 8-cyclopropyl-N-[(5-fluoro-1H-benzimidazol-2-yl)methyl]-2-(piperazin-1-yl)pyrazolo[1,5-a][1,3,5]triazin-4-amine], for which, on CDK9/CycT1, the IC50 was greater than 20000 nM. Besides, the DC50 in assay [1] was found to be 0.307 nM. In assay [2], the DC50 was found to be 0.553 nM and the “(IC50 CDK12 high ATP) to (Degradation DC50 CDK12) ratio” value was 11161.

For `CC(C)c1cnn2c(NCc3nc4ccccc4[nH]3)nc(Nc3ccncc3)nc12` [Example 14, N^4-[(1H-benzimidazol-2-yl)methyl]-8-(propan-2-yl)-N^2-(pyridin-4-yl)pyrazolo[1,5-a][1,3,5]triazine-2,4-diamine], the IC50 on CDK9/CycT1 is greater than 20000 nM. For the same molecule, the DC50 in assay [1] was 9.38 nM. Moreover, in assay [2], the DC50 was 14.6 nM and the “(IC50 CDK12 high ATP) to (Degradation DC50 CDK12) ratio” value is listed as greater than 1123.

With `C[C@H]1CN(c2nc(NCc3nc4ccccc4[nH]3)n3ncc(Br)c3n2)CCN1` [Example 169, N-[(1H-benzimidazol-2-yl)methyl]-8-bromo-2-[(3S)-3-methylpiperazin-1-yl]pyrazolo[1,5-a][1,3,5]triazin-4-amine], the IC50 at CDK9/CycT1 was greater than 20000 nM. Moreover, in assay [1], the DC50 stood at 1.04 nM. In addition, in assay [2], the DC50 worked out at 1.09 nM and the “(IC50 CDK12 high ATP) to (Degradation DC50 CDK12) ratio” value worked out at 12610.

For `Clc1cnn2c(NCc3nc4ccccc4[nH]3)nc(N3CCOCC3)nc12` [Example 15, N-[(1H-benzimidazol-2-yl)methyl]-8-chloro-2-(morpholin-4-yl)pyrazolo[1,5-a][1,3,5]triazin-4-amine], the IC50 was greater than 20000 nM on CDK9/CycT1 and 29.8 nM in assay [3]. The figures for the DC50 in assay [1] and in assay [2] were 2.98 nM and 5.05 nM, respectively. For the same molecule, in assay [2], the “(IC50 CDK12 high ATP) to (Degradation DC50 CDK12) ratio” value stood at 1191.

For `FC(F)(F)c1cnn2c(NCc3nc4ccccc4[nH]3)nc(N3CCOCC3)nc12` [Example 241, N-[(1H-benzimidazol-2-yl)methyl]-2-(morpholin-4-yl)-8-(trifluoromethyl) pyrazolo[1,5-a][1,3,5]triazin-4-amine], the IC50 on CDK9/CycT1 is greater than 20000 nM. Besides, the DC50 in assay [1] was 7.29 nM. For the same molecule, in assay [2], the DC50 is 4.34 nM and the “(IC50 CDK12 high ATP) to (Degradation DC50 CDK12) ratio” value amounted to 186.

Take `OC1CCCN(c2nc(NCc3nc4ccccc4[nH]3)n3ncc(Br)c3n2)C1` (racemic) [Example 16, (rac)-1-(4-{[(1H-benzimidazol-2-yl)methyl]amino}-8-bromopyrazolo[1,5-a][1,3,5]triazin-2-yl)piperidin-3-ol]: the IC50 on CDK9/CycT1 is greater than 20000 nM. In addition, the DC50 in assay [1] worked out at 58.1 nM. Also, in assay [2], the DC50 is 4.54 nM and the “(IC50 CDK12 high ATP) to (Degradation DC50 CDK12) ratio” value is reported as 1528.

As for `CN1C[C@@H]2C[C@H]1CN2c1nc(NCc2nc3ccccc3[nH]2)n2ncc(Br)c2n1` [Example 219, N-[(1H-benzimidazol-2-yl)methyl]-8-bromo-2-[(1S,4S)-5-methyl-2,5-diazabicyclo[2.2.1]heptan-2-yl]pyrazolo[1,5-a][1,3,5]triazin-4-amine], the IC50 on CDK9/CycT1 was greater than 20000 nM. Also, in assay [2], the DC50 is 16.2 nM and the “(IC50 CDK12 high ATP) to (Degradation DC50 CDK12) ratio” value was greater than 1232.
